Experimental data reported in patent publication US20100298141A1, “SUBSTITUTED PYRIDINE N-OXIDE HERBICIDES” (E. I. DU PONT DE NEMOURS AND COMPANY, priority 2007, published 2010).

Tests used:
yellow nutsedge = assay: Test C pre-/postemergence test; format: in vivo, Cyperus esculentus; conditions: for Plant response rating, Nutsedge, Yellow: 31 g ai/ha, scale 0 to 100 (0 no effect, 100 complete control)
In short: (§1)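 Test chemicals were formulated with surfactant in a non-phytotoxic solvent and sprayed both on freshly planted seeds (preemergence) and on 1- to 4-leaf plants of 2–18 cm (postemergence). Flooded-paddy pots received compound directly into 3 cm of standing water, maintained for the test.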

wild oat = assay: Test C pre-/postemergence test; format: in vivo, Avena fatua; conditions: for Plant response rating, Oat, Wild: 31 g ai/ha, scale 0 to 100 (0 no effect, 100 complete control)
In short: as §1

rice = assay: Test C flooded paddy test; format: in vivo, Oryza sativa; conditions: Flood
In short: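 Greenhouse pots flooded to 3 cm above soil at time of treatment received compound via the water, which stayed at that level.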

kochia = assay: Test C pre-/postemergence test; format: in vivo, Kochia scoparia; conditions: for Plant response rating, Kochia: 31 g ai/ha, scale 0 to 100 (0 no effect, 100 complete control)
In short: as §1

cocklebur = assay: Test C pre-/postemergence test; format: in vivo, Xanthium strumarium; conditions: for Plant response rating, Cocklebur: 31 g ai/ha, scale 0 to 100 (0 no effect, 100 complete control)
In short: as §1

corn [1] = assay: Test C pre-/postemergence test; format: in vivo, Zea mays; conditions: for Plant response rating, Corn: 31 g ai/ha, scale 0 to 100 (0 no effect, 100 complete control)
In short: as §1

Italian ryegrass = assay: Test C pre-/postemergence test; format: in vivo, Lolium multiflorum; conditions: for Plant response rating, Ryegrass, Italian: 31 g ai/ha, scale 0 to 100 (0 no effect, 100 complete control)
In short: as §1

morningglory [2] = assay: Test A pre-/postemergence greenhouse test; format: in vivo, Ipomoea spp.; conditions: for Morningglory plant response rating: 0 to 100 scale; for Plant response rating, Morningglory: 0 to 100 scale where 0 is no effect and 100 is complete control
In short: (§2)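 Two application timings were run side by side in the greenhouse. Before emergence, compound went onto the soil surface of loam–sand pots as a directed spray; after emergence, plants at 2–10 cm and the one- to two-leaf stage were treated. Visual injury versus controls was rated at approximately day ten.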

johnsongrass = assay: Test C pre-/postemergence test; format: in vivo, Sorghum halepense; conditions: for Plant response rating, Johnsongrass: 31 g ai/ha, scale 0 to 100 (0 no effect, 100 complete control)
In short: as §1

corn [3] = assay: Test A pre-/postemergence greenhouse test; format: in vivo, Zea mays; conditions: for Corn plant response rating: 0 to 100 scale; for Plant response rating, Corn: 0 to 100 scale where 0 is no effect and 100 is complete control
In short: as §2

bermudagrass = assay: Test C pre-/postemergence test; format: in vivo, Cynodon dactylon; conditions: for Plant response rating, Bermudagrass: 31 g ai/ha
In short: as §1

giant foxtail = assay: Test C pre-/postemergence test; format: in vivo, Setaria faberii; conditions: for Plant response rating, Foxtail, Giant: 31 g ai/ha, scale 0 to 100 (0 no effect, 100 complete control)
In short: as §1

redroot pigweed = assay: Test A pre-/postemergence greenhouse test; format: in vivo, Amaranthus retroflexus; conditions: for Pigweed plant response rating: 0 to 100 scale; for Plant response rating, Pigweed: 0 to 100 scale where 0 is no effect and 100 is complete control
In short: as §2

eastern black nightshade = assay: Test C pre-/postemergence test; format: in vivo, Solanum ptycanthum; conditions: for Plant response rating, Nightshade: 31 g ai/ha, scale 0 to 100 (0 no effect, 100 complete control)
In short: as §1

wheat = assay: Test C pre-/postemergence test; format: in vivo, Triticum aestivum; conditions: for Plant response rating, Wheat: 31 g ai/ha, scale 0 to 100 (0 no effect, 100 complete control)
In short: as §1

[4] = test system: common (oilseed) sunflower; assay: Test C pre-/postemergence test; format: in vivo, Helianthus annuus
In short: as §1

morningglory [5] = assay: Test C pre-/postemergence test; format: in vivo, Ipomoea coccinea; conditions: for Plant response rating, Morningglory: 31 g ai/ha, scale 0 to 100 (0 no effect, 100 complete control)
In short: as §1

[6] = 62 g ai/ha, Preemergence, scale 0 to 100
[7] = 31 g ai/ha, scale 0 to 100 (0 no effect, 100 complete control)
[8] = 62 g ai/ha, scale 0 to 100, 0 no effect, 100 complete control, 13 to 15 days
[9] = 125 g ai/ha, scale 0 to 100, 0 no effect, 100 complete control, 13 to 15 days
[10] = 250 g ai/ha, scale 0 to 100, 0 no effect, 100 complete control, 13 to 15 days
[11] = preemergence, 125 g ai/ha, scale 0 (no effect) to 100 (complete control)
[12] = Postemergence, 125 g ai/ha, 0 is no effect, 100 is complete control
[13] = Postemergence, 500 g ai/ha, 0 is no effect, 100 is complete control
[14] = Preemergence, 125 g ai/ha, 0 no effect, 100 complete control
[15] = 62 g ai/ha, Preemergence, scale 0 to 100 (0 no effect, 100 complete control)
[16] = Preemergence, scale 0 to 100 (0 no effect, 100 complete control)
[17] = 125 g ai/ha, preemergence, scale 0 (no effect) to 100 (complete control)
[18] = preemergence, 250 g ai/ha, scale 0 (no effect) to 100 (complete control)

CC(c1c(C(F)(F)F)nn(C)c1OCC(F)(F)F)S(=O)(=O)c1cccc[n+]1[O-] (racemic) [Compound 33]
Nutsedge, Yellow plant response rating (yellow nutsedge; [6]): 100
Plant response rating, Nutsedge, Yellow (yellow nutsedge; Preemergence): 100
Oat, Wild plant response rating (wild oat; [6]): 65
Plant response rating, Oat, Wild (wild oat; Preemergence): 50
Plant response rating, Rice (rice; [7]): 0
Plant response rating, Rice (rice; [8]): 0
Plant response rating, Rice (rice; [9]): 30
Plant response rating, Rice (rice; [10]): 75
Kochia plant response rating (kochia; [6]): 100
Plant response rating, Kochia (kochia; Preemergence): 100
Cocklebur plant response rating (cocklebur; [6]): 0
Plant response rating, Cocklebur (cocklebur; Preemergence): 0
Plant response rating (0 to 100), Cocklebur (cocklebur; Preemergence, 250 g ai/ha): 45
Cocklebur plant response rating (cocklebur; [11]): 40
Corn plant response rating (corn [1]; [6]): 90
Plant response rating, Corn (corn [1]; Preemergence): 60
Plant response rating (0 to 100), Corn (corn [1]; Preemergence, 250 g ai/ha): 98
Corn plant response rating (corn [1]; [11]): 98
Ryegrass, Italian plant response rating (Italian ryegrass; [6]): 80
Plant response rating, Ryegrass, Italian (Italian ryegrass; Preemergence): 70
Morningglory plant response rating (morningglory [2]; [12]): 60
Morningglory plant response rating (morningglory [2]; [13]): 90
Morningglory plant response rating (morningglory [2]; [14]): 90
Plant response rating, Morningglory (morningglory [2]; Preemergence, 500 g ai/ha): 90
Johnsongrass plant response rating (johnsongrass; [6]): 100
Plant response rating, Johnsongrass (johnsongrass; Preemergence): 98
Plant response rating (0 to 100), Johnsongrass (johnsongrass; Preemergence, 250 g ai/ha): 100
Corn plant response rating (corn [3]; [12]): 50
Corn plant response rating (corn [3]; [13]): 70
Corn plant response rating (corn [3]; [14]): 70
Plant response rating, Corn (corn [3]; Preemergence, 500 g ai/ha): 80
Bermudagrass plant response rating (bermudagrass; [15]): 100
Plant response rating, Bermudagrass (bermudagrass; [16]): 100
Plant response rating (0 to 100), Bermudagrass (bermudagrass; Preemergence, 250 g ai/ha): 100
Bermudagrass plant response rating (bermudagrass; [11]): 100
Foxtail, Giant plant response rating (giant foxtail; [6]): 100
Plant response rating, Foxtail, Giant (giant foxtail; Preemergence): 98
Plant response rating (0 to 100), Foxtail, Giant (giant foxtail; Preemergence, 250 g ai/ha): 100
Pigweed plant response rating (redroot pigweed; [12]): 60
Pigweed plant response rating (redroot pigweed; [13]): 90
Pigweed plant response rating (redroot pigweed; [14]): 100
Plant response rating, Pigweed (redroot pigweed; Preemergence, 500 g ai/ha): 100
Nightshade plant response rating (eastern black nightshade; [6]): 85
Plant response rating, Nightshade (eastern black nightshade; Preemergence): 70
Wheat plant response rating (wheat; [6]): 50
Plant response rating, Wheat (wheat; Preemergence): 30
Sunflower plant response rating [4, 6]: 0
Morningglory plant response rating (morningglory [5]; [6]): 100
Plant response rating, Morningglory (morningglory [5]; Preemergence): 100

Cn1nc(C(F)(F)F)c(C(Cl)S(=O)(=O)c2cccc[n+]2[O-])c1OCC(F)(F)F (racemic) [Compound 36]
Nutsedge, Yellow plant response rating (yellow nutsedge; [6]): 50
Nutsedge, Yellow plant response rating (yellow nutsedge; [17]): 100
Plant response rating, Nutsedge, Yellow (yellow nutsedge; Preemergence): 0
Nutsedge, Yellow plant response rating (yellow nutsedge; [18]): 100
Oat, Wild plant response rating (wild oat; [6]): 30
Oat, Wild plant response rating (wild oat; [17]): 40
Plant response rating, Oat, Wild (wild oat; Preemergence): 25
Oat, Wild plant response rating (wild oat; [18]): 80
Plant response rating, Rice (rice; [7]): 0
Plant response rating, Rice (rice; [8]): 25
Plant response rating, Rice (rice; [9]): 60
Plant response rating, Rice (rice; [10]): 75
Kochia plant response rating (kochia; [17]): 20
Plant response rating, Kochia (kochia; Preemergence): 0
Kochia plant response rating (kochia; [18]): 100
Cocklebur plant response rating (cocklebur; [6]): 0
Cocklebur plant response rating (cocklebur; [17]): 0
Plant response rating, Cocklebur (cocklebur; Preemergence): 0
Cocklebur plant response rating (cocklebur; [18]): 0
Corn plant response rating (corn [1]; [6]): 40
Corn plant response rating (corn [1]; [17]): 60
Plant response rating, Corn (corn [1]; Preemergence): 0
Corn plant response rating (corn [1]; [18]): 80
Ryegrass, Italian plant response rating (Italian ryegrass; [6]): 98
Ryegrass, Italian plant response rating (Italian ryegrass; [17]): 100
Plant response rating, Ryegrass, Italian (Italian ryegrass; Preemergence): 30
Ryegrass, Italian plant response rating (Italian ryegrass; [18]): 100
Morningglory plant response rating (morningglory [2]; [12]): 0
Morningglory plant response rating (morningglory [2]; [13]): 30
Morningglory plant response rating (morningglory [2]; [14]): 0
Plant response rating, Morningglory (morningglory [2]; Preemergence, 500 g ai/ha): 80
Johnsongrass plant response rating (johnsongrass; [6]): 80
Johnsongrass plant response rating (johnsongrass; [17]): 90
Plant response rating, Johnsongrass (johnsongrass; Preemergence): 60
Johnsongrass plant response rating (johnsongrass; [18]): 90
Corn plant response rating (corn [3]; [12]): 0
Corn plant response rating (corn [3]; [13]): 0
Corn plant response rating (corn [3]; [14]): 0
Plant response rating, Corn (corn [3]; Preemergence, 500 g ai/ha): 0
Bermudagrass plant response rating (bermudagrass; [15]): 100
Bermudagrass plant response rating (bermudagrass; [17]): 100
Plant response rating, Bermudagrass (bermudagrass; [16]): 85
Bermudagrass plant response rating (bermudagrass; [18]): 100
Foxtail, Giant plant response rating (giant foxtail; [6]): 50
Foxtail, Giant plant response rating (giant foxtail; [17]): 100
Plant response rating, Foxtail, Giant (giant foxtail; Preemergence): 30
Foxtail, Giant plant response rating (giant foxtail; [18]): 100
Pigweed plant response rating (redroot pigweed; [12]): 10
Pigweed plant response rating (redroot pigweed; [13]): 60
Pigweed plant response rating (redroot pigweed; [14]): 100
Plant response rating, Pigweed (redroot pigweed; Preemergence, 500 g ai/ha): 100
Nightshade plant response rating (eastern black nightshade; [6]): 70
Nightshade plant response rating (eastern black nightshade; [17]): 80
Plant response rating, Nightshade (eastern black nightshade; Preemergence): 70
Nightshade plant response rating (eastern black nightshade; [18]): 80
Wheat plant response rating (wheat; [6]): 0
Wheat plant response rating (wheat; [17]): 0
Plant response rating, Wheat (wheat; Preemergence): 0
Wheat plant response rating (wheat; [18]): 15
Sunflower plant response rating [4, 6]: 0
Sunflower plant response rating [4, 17]: 0
Plant response rating, Sunflower ([4]; Preemergence, 31 g ai/ha, scale 0 to 100 (0 no effect, 100 complete control)): 0
Sunflower plant response rating [4, 18]: 0
Morningglory plant response rating (morningglory [5]; [6]): 10
Morningglory plant response rating (morningglory [5]; [17]): 60
Plant response rating, Morningglory (morningglory [5]; Preemergence): 0
Morningglory plant response rating (morningglory [5]; [18]): 75
